Measurements published in US20260355274A1 (Onkure, Inc., priority 2022, published 2026).
pIC50: −log10 of the molar value.

Assays:
[1] = test system: AGS human gastric adenocarcinoma hyperdiploid cell line; experiment: 72 hour proliferation assay (CellTiter-Glo), AGS, KRAS G12D; assay type: cell-based
Method: (§1) In particular, cells are grown in multi-well plates and incubated with the OKI-005 and binimetinib for 72 hours. The number of viable cells is determined by luminescence readout after the addition of CellTiter-Glo (CTG) dye.
(§2) FIGS. 12A, 12B and 12C illustrate the results of studies of the combination of OKI-005 with each of binimetinib, GDC-0994 and sotorasib in the NCI-H358 (NSCLC KRAS^G12C) cell line. FIGS. 12D, 12E and 12F illustrate the results of studies of the combination of OKI-005 with each of binimetinib, GDC-0994 and MRTX1133 (a KRAS^G12D Inhibitor) in the AGS (Gastric KRAS^G12D) cell line. […] In particular, cells are grown in multi-well plates and incubated with the OKI-005 and binimetinib for 72 hours. The number of viable cells is determined by luminescence readout after the addition of CellTiter-Glo (CTG) dye.

[2] = test system: MGMT-positive human tumor cell lines versus MGMT-negative human tumor cell lines; experiment: synergy in MGMT-positive versus MGMT-negative tumor cell lines; assay type: cell-based; settings: combination with binimetinib compared to OKI-005 or binimetinib alone
[3] = test system: RAS mutated cell lines and RAS WT cell lines; experiment: 72-hour proliferation assay, RAS mutated versus RAS wild-type cell lines; assay type: cell-based; settings: combined with binimetinib, physiologically relevant concentrations, Day 3 compared to Day 0
From the text: . The RAS mutated cell lines and the RAS WT cell lines involved in this study represent conventional and well known cell lines for this purpose. See, e.g., FIG. 16.

[4] = test system: human uveal melanoma cell line MP46; experiment: 72 hour proliferation assay (CellTiter-Glo), uveal melanoma MP46; assay type: cell-based; settings: combined with binimetinib, GNAQ/11 Q209L
Method: as §1

[5] = test system: NCI-H358 non-small cell lung cancer cell line; experiment: 72 hour proliferation assay (CellTiter-Glo), NCI-H358, KRAS G12C; assay type: cell-based
Method: as §1, §2

[6] = test system: human uveal melanoma cell line 92-1; experiment: 72 hour proliferation assay (CellTiter-Glo), uveal melanoma 92-1; assay type: cell-based; settings: combined with binimetinib, GNAQ/11 Q209L
Method: as §1

[7] = metabolism to active compound; settings: to OKI-006
From the text: The following figures are illustrative of specific embodiments of the invention and are not intended to otherwise limit the scope of the invention as described herein. OKI-005 is an in vitro optimized tool compound. […] In the figures, “bini” is equivalent to binimetinib (a MEK 1/2 inhibitor) and “enco” is equivalent to encorafenib (a BRAF inhibitor).

[8] = test system: SKMEL2 melanoma cell line; experiment: 72 hour proliferation assay (CellTiter-Glo), SKMEL2 melanoma, NRAS mutated; assay type: cell-based; settings: combined with binimetinib
Method: as §1
In particular, in FIGS. 9A and 9B, cells are grown in multi-well plates and incubated with the OKI-005 and binimetinib for 72 hours. The number of viable cells is determined by luminescence readout after the addition of CellTiter-Glo (CTG) dye. SEM is the standard error of the mean, […]

SKMEL2 xenograft = experiment: SKMEL2 NRAS mutated xenograft, tumor growth and regressions; assay type: in vivo, mouse; settings: for tumor growth delay and regressions: single agent, SKMEL2 NRAS mutated xenograft
From the text: (§3) As used herein, “Son/2off” refers to a dosing schedule of 5 days on and 2 days off each week. […] Glyceraldehyde 3-phosphate dehydrogenase (GAPDH) was used as a control.

Ac-H3K9 = Ac-H3K9 in SKMEL2 tumors (HDACi PD); assay type: in vivo; settings: 2 hours post dose
From the text: as §3

[9] = test system: NCI-H358 KRAS^G12C non-small cell lung cancer xenografts; experiment: NCI-H358 KRAS G12C NSCLC xenografts, regressions; assay type: in vivo, mouse; settings: combined with sotorasib, 50-day period after dosing
From the text: As used herein, “4on/3off” refers to a dosing schedule of 4 days on and 3 days off each week.

advanced cancer patients = experiment: maximally-tolerated dose in advanced cancer patients; assay type: in vivo, human
From the text: It will be appreciated that appropriate dosages can vary from patient to patient. Determining the optimal dosage will generally involve the balancing of the level of therapeutic benefit against any risk or deleterious side effects of the treatments described herein. The selected dosage level will depend on a variety of factors including, but not limited to, the activity of the particular compound, the route of administration, the time of administration, the rate of excretion of the compound, the duration of the treatment, other drugs, compounds, or materials used in combination, and the age, sex, weight, condition, general health, and prior medical history of the patient. The amount(s) of the compound(s) administered and the route of administration will ultimately be at the discretion of a physician. […] On Schedule 2, the MTD was 200 mg daily on a continuous dosing regimen and on Schedule 3, the MTD was 300 mg for 5 days on and 2 days off each week.

[10] = test system: patients with solid tumors; experiment: Phase 1 clinical trials in patients with solid tumors; assay type: in vivo, human; settings: Phase 1, single agent, oral
mouse xenograft models = settings: with binimetinib
[11] = test system: HT29 BRAF^V600E colorectal (CRC) xenografts; experiment: HT29 BRAF V600E colorectal xenografts, regressions; assay type: in vivo, mouse; settings: combined with binimetinib and encorafenib, following two weeks of dosing
[12] = mouse body weight change, HT29 xenograft study; assay type: in vivo; settings: combined with binimetinib and encorafenib, up to 15 days after randomization
[13] = test system: RAS-pathway mutated models; experiment: preclinical activity in RAS-pathway mutated models; assay type: in vivo; settings: in combination with binimetinib
From the text: As an example of the frequency of mutations associated with various cancers, mutations in NRAS account for 20% of all melanomas and affect approximately 65,000 patients worldwide. Such melanomas have a tendency to be more aggressive than their wild-type counterparts and frequently have poor outcomes. Current therapies for NRAS-mutant melanoma remain limited, with little efficacy. No targeted therapies are currently available post PD1i.

HDAC 8 = HDAC 8 (Homo sapiens, UniProt Q9BY41); experiment: enzymatic inhibition of HDAC 8; assay type: biochemical
Sequence of HDAC 8 (Q9BY41 whole entry): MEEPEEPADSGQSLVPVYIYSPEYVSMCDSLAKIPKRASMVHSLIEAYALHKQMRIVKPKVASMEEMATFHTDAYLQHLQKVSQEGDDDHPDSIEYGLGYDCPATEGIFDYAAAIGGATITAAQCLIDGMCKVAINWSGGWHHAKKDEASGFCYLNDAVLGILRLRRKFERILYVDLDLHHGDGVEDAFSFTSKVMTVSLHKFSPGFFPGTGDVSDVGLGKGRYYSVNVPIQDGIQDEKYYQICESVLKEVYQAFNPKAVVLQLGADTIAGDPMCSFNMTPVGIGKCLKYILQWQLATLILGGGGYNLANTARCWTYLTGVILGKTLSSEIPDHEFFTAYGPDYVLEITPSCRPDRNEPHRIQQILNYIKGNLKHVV
From the text: (§4) The mammalian HDACs can be divided into four classes depending on their sequence homology, sub-cellular distribution and catalytic activity. Class I, Il and IV HDACs have a Zn^2+ cofactor in the catalytic site. Class III HDACs contain sirtuins 1-7 and are NAD^+-dependent. Class I (HDACs 1, 2, 3 and 8) share the same homology as Rpd3 and are preliminarily distributed in the nucleus of normal cells. Class II HDACs can be subdivided into class IIa HDACs and class Ilb HDACs. Class IIa enzymes (HDAC 4, 5, 7 and 9) shuttle between the nucleus and cytoplasm and are located in specific tissues such as the brain, heart, and muscle. Class IIb (HDACs 6 and 10) are chiefly located in the cytoplasm.

HDAC 4 = HDAC 4 (Homo sapiens, UniProt P56524); experiment: enzymatic inhibition of HDAC 4; assay type: biochemical
From the text: as §4

HDAC 7 = HDAC 7 (Homo sapiens, UniProt Q8WUI4); experiment: enzymatic inhibition of HDAC 7; assay type: biochemical
Sequence of HDAC 7 (Q8WUI4 whole entry): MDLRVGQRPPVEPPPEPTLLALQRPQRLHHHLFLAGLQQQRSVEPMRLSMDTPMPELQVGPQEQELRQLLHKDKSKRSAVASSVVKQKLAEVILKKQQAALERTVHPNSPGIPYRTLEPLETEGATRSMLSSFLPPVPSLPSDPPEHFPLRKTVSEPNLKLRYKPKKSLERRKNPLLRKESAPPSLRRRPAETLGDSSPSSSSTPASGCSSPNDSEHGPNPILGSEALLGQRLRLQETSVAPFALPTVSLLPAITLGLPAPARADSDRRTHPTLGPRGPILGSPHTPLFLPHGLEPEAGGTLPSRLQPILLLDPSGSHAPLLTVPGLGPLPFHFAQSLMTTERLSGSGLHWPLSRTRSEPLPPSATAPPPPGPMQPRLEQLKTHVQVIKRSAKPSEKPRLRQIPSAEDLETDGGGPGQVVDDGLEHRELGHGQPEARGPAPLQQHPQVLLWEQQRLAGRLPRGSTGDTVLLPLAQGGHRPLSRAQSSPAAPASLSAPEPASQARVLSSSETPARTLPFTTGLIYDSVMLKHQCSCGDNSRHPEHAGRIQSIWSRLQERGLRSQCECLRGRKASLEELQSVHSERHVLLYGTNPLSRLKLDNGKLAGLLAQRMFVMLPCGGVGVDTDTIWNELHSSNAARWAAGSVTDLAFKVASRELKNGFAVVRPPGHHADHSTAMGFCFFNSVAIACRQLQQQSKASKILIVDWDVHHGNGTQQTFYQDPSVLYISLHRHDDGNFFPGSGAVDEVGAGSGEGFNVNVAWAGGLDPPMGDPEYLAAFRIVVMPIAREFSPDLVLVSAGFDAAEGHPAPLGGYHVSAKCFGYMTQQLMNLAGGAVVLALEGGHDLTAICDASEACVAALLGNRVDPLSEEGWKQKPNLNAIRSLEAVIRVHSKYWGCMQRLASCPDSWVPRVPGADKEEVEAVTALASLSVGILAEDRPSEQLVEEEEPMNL
From the text: as §4

HDAC 6 = HDAC 6 (Homo sapiens, UniProt Q9UBN7); experiment: enzymatic inhibition of HDAC 6; assay type: biochemical
From the text: as §4

HDAC 11 = HDAC 11 (Homo sapiens, UniProt Q96DB2); experiment: enzymatic inhibition of HDAC 11; assay type: biochemical; settings: HDAC 11, Class IV
Sequence of HDAC 11 (Q96DB2 whole entry): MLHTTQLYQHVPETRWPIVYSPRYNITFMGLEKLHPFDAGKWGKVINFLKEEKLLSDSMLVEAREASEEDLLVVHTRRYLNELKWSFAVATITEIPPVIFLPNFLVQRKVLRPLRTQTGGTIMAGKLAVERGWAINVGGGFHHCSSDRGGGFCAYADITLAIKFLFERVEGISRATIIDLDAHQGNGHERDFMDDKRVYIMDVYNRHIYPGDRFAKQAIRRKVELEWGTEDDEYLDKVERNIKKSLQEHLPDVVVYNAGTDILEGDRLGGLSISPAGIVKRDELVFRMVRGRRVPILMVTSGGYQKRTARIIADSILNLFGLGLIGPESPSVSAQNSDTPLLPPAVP
From the text: as §4

HDAC 5 = HDAC 5 (Homo sapiens, UniProt Q9UQL6); experiment: enzymatic inhibition of HDAC 5; assay type: biochemical
Sequence of HDAC 5 (Q9UQL6 whole entry): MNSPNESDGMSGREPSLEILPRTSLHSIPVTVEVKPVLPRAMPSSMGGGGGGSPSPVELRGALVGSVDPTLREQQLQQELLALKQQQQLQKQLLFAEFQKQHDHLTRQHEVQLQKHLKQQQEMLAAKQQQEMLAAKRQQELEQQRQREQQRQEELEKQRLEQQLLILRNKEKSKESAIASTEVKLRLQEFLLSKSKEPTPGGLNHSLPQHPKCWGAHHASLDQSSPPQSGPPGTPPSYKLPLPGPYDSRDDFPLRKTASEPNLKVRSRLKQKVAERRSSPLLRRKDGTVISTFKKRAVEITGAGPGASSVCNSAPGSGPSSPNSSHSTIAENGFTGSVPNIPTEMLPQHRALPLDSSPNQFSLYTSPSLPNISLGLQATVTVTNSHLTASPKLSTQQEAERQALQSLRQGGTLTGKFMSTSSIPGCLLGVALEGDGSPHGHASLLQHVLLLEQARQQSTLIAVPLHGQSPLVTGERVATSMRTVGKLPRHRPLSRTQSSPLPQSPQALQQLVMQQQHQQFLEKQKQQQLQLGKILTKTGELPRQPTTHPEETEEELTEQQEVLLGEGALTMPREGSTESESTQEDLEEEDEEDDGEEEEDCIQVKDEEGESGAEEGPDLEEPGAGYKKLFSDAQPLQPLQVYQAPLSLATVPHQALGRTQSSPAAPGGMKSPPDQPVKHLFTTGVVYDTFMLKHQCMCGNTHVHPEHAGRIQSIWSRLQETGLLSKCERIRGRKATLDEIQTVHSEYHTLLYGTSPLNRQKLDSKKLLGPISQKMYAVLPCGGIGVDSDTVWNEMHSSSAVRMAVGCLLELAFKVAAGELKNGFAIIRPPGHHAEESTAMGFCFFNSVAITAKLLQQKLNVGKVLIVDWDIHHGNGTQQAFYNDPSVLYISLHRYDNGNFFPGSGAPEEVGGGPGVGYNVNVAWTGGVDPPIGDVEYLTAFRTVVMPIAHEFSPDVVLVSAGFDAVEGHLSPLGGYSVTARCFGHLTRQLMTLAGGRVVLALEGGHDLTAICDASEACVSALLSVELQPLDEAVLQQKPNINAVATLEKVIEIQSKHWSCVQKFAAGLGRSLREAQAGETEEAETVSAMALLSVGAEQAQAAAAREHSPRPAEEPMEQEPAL
From the text: as §4

HDAC 2 = HDAC 2 (Homo sapiens, UniProt Q92769); experiment: enzymatic inhibition of HDAC 2; assay type: biochemical
Sequence of HDAC 2 (Q92769 whole entry): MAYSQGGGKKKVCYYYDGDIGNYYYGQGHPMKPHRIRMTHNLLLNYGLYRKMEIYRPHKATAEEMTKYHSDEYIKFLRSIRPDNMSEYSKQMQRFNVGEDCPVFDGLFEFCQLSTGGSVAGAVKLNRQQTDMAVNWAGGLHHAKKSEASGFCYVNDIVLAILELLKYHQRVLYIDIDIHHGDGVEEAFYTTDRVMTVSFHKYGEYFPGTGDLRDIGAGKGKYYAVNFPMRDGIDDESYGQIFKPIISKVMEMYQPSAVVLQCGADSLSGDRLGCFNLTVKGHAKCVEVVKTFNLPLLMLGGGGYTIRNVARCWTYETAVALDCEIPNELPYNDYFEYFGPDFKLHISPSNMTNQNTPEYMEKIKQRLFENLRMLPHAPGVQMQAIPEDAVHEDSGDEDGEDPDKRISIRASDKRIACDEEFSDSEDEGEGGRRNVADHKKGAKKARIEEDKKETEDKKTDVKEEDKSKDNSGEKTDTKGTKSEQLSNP
From the text: as §4

HDAC 9 = HDAC 9 (Homo sapiens, UniProt Q9UKV0); experiment: enzymatic inhibition of HDAC 9; assay type: biochemical
Sequence of HDAC 9 (Q9UKV0 whole entry): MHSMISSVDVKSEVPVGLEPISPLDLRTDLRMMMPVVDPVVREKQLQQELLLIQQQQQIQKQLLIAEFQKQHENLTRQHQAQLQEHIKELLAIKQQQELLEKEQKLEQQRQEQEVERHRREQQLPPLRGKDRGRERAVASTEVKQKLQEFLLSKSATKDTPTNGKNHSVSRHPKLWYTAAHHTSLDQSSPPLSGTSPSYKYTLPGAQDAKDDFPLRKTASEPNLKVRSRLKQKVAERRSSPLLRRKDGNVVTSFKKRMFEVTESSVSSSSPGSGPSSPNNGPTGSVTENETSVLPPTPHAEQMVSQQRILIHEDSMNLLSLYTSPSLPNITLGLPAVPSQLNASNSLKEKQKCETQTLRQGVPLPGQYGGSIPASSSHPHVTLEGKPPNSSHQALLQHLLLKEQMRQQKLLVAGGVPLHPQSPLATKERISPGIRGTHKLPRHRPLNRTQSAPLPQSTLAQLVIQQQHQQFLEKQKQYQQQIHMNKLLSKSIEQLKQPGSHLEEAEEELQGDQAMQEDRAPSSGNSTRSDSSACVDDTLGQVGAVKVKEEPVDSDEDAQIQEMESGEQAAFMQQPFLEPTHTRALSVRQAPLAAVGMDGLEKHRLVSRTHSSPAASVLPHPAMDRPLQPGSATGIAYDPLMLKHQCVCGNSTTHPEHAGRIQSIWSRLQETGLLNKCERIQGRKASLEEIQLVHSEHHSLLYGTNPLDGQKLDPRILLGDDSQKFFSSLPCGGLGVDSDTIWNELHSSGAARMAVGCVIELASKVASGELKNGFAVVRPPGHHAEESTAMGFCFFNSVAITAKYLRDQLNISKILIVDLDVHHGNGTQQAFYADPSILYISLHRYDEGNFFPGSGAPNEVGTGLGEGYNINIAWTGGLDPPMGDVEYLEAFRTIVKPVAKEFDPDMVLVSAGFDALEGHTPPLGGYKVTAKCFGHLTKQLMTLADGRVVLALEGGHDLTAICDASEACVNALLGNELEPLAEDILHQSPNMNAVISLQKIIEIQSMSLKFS
From the text: as §4

HDAC 10 = HDAC 10 (Homo sapiens, UniProt Q969S8); experiment: enzymatic inhibition of HDAC 10; assay type: biochemical; settings: HDAC 10, Class IIb
Sequence of HDAC 10 (Q969S8 whole entry): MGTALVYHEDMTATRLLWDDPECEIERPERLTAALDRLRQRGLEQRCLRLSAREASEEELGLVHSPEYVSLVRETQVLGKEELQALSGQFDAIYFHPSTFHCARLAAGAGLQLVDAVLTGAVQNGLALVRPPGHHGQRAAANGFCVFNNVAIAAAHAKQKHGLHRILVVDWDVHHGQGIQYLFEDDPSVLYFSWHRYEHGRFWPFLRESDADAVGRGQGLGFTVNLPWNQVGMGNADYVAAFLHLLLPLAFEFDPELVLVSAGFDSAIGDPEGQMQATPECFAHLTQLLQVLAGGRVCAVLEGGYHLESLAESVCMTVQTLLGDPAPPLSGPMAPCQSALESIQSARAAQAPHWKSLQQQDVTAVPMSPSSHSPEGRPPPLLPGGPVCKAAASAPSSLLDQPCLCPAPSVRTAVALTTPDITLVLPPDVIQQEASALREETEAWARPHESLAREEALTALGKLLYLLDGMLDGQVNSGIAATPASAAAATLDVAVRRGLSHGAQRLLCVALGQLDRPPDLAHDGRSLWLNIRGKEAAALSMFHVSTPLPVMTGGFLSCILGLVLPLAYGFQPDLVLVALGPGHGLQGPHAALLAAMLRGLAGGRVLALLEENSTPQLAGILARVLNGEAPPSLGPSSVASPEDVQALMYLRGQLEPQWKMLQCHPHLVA
From the text: as §4

pERK = pERK in SKMEL2 tumors (MEKi PD); assay type: in vivo; settings: 2 hours post dose
From the text: as §3

[14] = test system: KRAS^G12C colorectal cancer (CRC); settings: single-agent RAS pathway inhibition; cited from earlier work
[15] = test system: KRAS^G12C pancreatic cancer; settings: single-agent RAS pathway inhibition; cited from earlier work
[16] = test system: BRAF^V600E colorectal cancer (CRC); settings: single-agent RAS pathway inhibition; cited from earlier work
BRAF^V600E melanoma = settings: single-agent RAS pathway inhibition; cited from earlier work
[17] = combined with binimetinib, 72 hours, KRAS

## CCCCCCCC(=O)SCC/C=C/[C@@H]1CC(=O)NCc2nc(cs2)C(=O)NC(C)(C)C(=O)N[C@@H](C(C)C)C(=O)O1 [OKI-005]
[1]; combined with GDC-0994, KRAS^G12D
  Loewe synergy: combination synergy was observed in all cases
[1]; combined with MRTX1133, KRAS^G12D
  Loewe synergy: combination synergy was observed in all cases
[1]; [17]
  anti-proliferative activity, synergy: synergistic anti-proliferative activity
[1]; combined with binimetinib, 72 hours, KRAS^G12D
  Loewe synergy: combination synergy was observed in all cases
[2]
  synergistic effects in MGMT-positive versus MGMT-negative cell lines: synergistic effects
[3]
  synergy, RAS mutated compared to RAS wild-type: a superior effect greater than that of either agent alone
[4]
  anti-proliferative activity, synergy: synergistic anti-proliferative activity
[5]; combined with GDC-0994, KRAS^G12C
  Loewe synergy: combination synergy was observed in all cases
[5]; [17]
  anti-proliferative activity, synergy: synergistic anti-proliferative activity
[5]; combined with binimetinib, 72 hours, KRAS^G12C
  Loewe synergy: combination synergy was observed in all cases
[5]; combined with sotorasib, KRAS^G12C
  Loewe synergy: combination synergy was observed in all cases
[6]
  anti-proliferative activity, synergy: synergistic anti-proliferative activity
[7]
  metabolism to active compound: metabolized to the same active compound, OKI-006
[8]; 72 hours, NRAS
  anti-proliferative activity, synergy: synergistic anti-proliferative activity
[8]; NRAS-mutated SKMEL2
  cell growth inhibition and cell death (PARP cleavage): significant cell growth inhibition and cell death

## CC(C)[C@H](N)C(=O)SCC/C=C/[C@@H]1CC(=O)NCc2nc(cs2)C(=O)NC(C)(C)C(=O)N[C@@H](C(C)C)C(=O)O1.O=S(=O)(O)c1ccccc1 [OKI-179]
SKMEL2 xenograft; combination with binimetinib versus either single agent, following two weeks of dosing
  regressions: significantly increased regressions compared to either single agent
SKMEL2 xenograft
  tumor growth delay and regressions: tumor growth delay, but few regressions
Ac-H3K9
  on-target PD activity, Ac-H3K9 (HDACi PD): strong on-target PD activity
[9]
  regressions: significantly increased regressions compared to either OKI-179 or sotorasib alone
Advanced cancer patients; Schedule 1, oral, 4 days on and 3 days off each week
  recommended Phase 2 dose (RP2D): 300 mg
Advanced cancer patients; Schedule 1, oral, daily, 4 days on and 3 days off each week
  MTD: 450 mg
Advanced cancer patients; Schedule 2, oral, daily, continuous dosing regimen
  MTD: 200 mg
Advanced cancer patients; Schedule 3, oral, 5 days on and 2 days off each week
  MTD: 300 mg
[10]
  pharmacodynamic activity: strong pharmacodynamic activity at tolerated doses
Mouse xenograft models
  synergy at physiologically-relevant doses: synergy associated with OKI-179 and binimetinib occurs at physiologically-relevant doses of OKI-179
[11]
  regressions: significantly increased regressions compared to either OKI-179 alone or the combination of binimetinib and encorafenib
[12]
  mouse body weight loss: greater weight loss than either OKI-179 alone or the combination of binimetinib and encorafenib
[13]
  regressions: regressions in multiple RAS-pathway mutated models
[7]
  metabolism to active compound: metabolized to the same active compound, OKI-006

## C/C=C1\NC(=O)[C@@H](CS)NC(=O)[C@@H](C(C)C)NC(=O)C[C@@H](/C=C/CCS)OC(=O)[C@H](C(C)C)NC1=O [Red-FK228, reference compound]
HDAC 8
  pIC50: < 6.00
HDAC 4
  pIC50: 6.19
HDAC 7
  pIC50: < 6.00
HDAC 6
  pIC50: 6.65
HDAC 11
  pIC50: 9.52
HDAC 5
  pIC50: < 6.00
HDAC 2
  pIC50: 9.00
HDAC 9
  pIC50: < 6.00
HDAC 10
  pIC50: 9.05

## Cn1cnc2c(F)c(Nc3ccc(Br)cc3F)c(C(=O)NOCCO)cc21 [binimetinib, reference compound]
SKMEL2 xenograft
  tumor growth delay and regressions: tumor growth delay, but few regressions
pERK
  on-target PD activity, pERK (MEKi PD): strong on-target PD activity

## C=CC(=O)N1CCN(c2nc(=O)n(-c3c(C)ccnc3C(C)C)c3nc(-c4c(O)cccc4F)c(F)cc23)[C@@H](C)C1 [sotorasib]
[14]
  effectiveness: relative ineffectiveness
[15]
  effectiveness: relative ineffectiveness

## CCCS(=O)(=O)Nc1ccc(F)c(C(=O)c2c[nH]c3ncc(-c4ccc(Cl)cc4)cc23)c1F [vemurafenib]
[16]
  effectiveness: relative ineffectiveness
BRAF^V600E melanoma
  effectiveness: relative ineffectiveness
